What follows are molecules tested against DOR (Homo sapiens, UniProt P41143) (assay: Opioid secondary binding, DOR (Table 4)). Conditions: Opioid secondary binding activity for Formula 10 analogs.
DOR, sequence (P41143 whole entry): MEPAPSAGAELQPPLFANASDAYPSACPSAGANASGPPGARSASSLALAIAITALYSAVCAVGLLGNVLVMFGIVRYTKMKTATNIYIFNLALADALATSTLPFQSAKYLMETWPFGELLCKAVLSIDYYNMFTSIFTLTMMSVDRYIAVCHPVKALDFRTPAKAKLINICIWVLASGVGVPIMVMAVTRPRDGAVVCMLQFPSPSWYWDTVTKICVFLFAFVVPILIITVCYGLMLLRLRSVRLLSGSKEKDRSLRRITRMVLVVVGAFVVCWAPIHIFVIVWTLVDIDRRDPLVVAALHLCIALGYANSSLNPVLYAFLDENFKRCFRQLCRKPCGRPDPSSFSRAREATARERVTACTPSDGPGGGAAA

Question: For `Cc1cc(C)c(NC(=O)[C@@H]2CC=C[C@@H]3CCN(Cc4ccccc4)C(=O)[C@@H]32)c(C)c1` (racemic) [compound 11957], which Ki is on record?
Answer: 3220 nM

Question: For `O=C([C@@H]1CC=C[C@@H]2CCN(C3CCCCC3)C(=O)[C@@H]21)N1CCCC1` (racemic) [compound 12084], which Ki is on record?
Answer: 6290 nM

Question: Which Ki does the source give for `CN(C(=O)[C@@H]1CC=C[C@@H]2CCN(C3CCCCC3)C(=O)[C@@H]21)c1ccccc1` (racemic) [compound 12160] here?
Answer: 2980 nM

Question: For `Cc1ccc(NC(=O)[C@@H]2CC=C[C@@H]3CCN(Cc4ccccc4F)C(=O)[C@@H]32)cc1C(F)(F)F` (racemic) [compound 13479], which Ki is on record?
Answer: 9.5 nM

Question: For `O=C(Nc1nccs1)[C@@H]1CC=C[C@@H]2CCCN(C3CCCCC3)C(=O)[C@@H]21` (racemic) [compound 14428], which Ki is on record?
Answer: 2990 nM

Question: Which Ki does the source give for `O=C(Nc1ccc(F)c(F)c1)[C@@H]1CC=C[C@@H]2CCN(CC3CC3)C(=O)[C@@H]21` (racemic) [compound 12155] here?
Answer: 2250 nM

Question: How did the Ki turn out when `CC(C)N(C(=O)[C@@H]1CC=C[C@@H]2CCN(CC3CCCCC3)C(=O)[C@@H]21)C1CCCCC1` (racemic) [compound 12134] was run?
Answer: 1630 nM

Question: `O=C(Nc1ccc(Cl)c(C(F)(F)F)c1)[C@@H]1CC=C[C@@H]2CN(C3CCCCC3)C(=O)[C@@H]21` (racemic) [compound 14439] was tested. Which Ki did it give?
Answer: 5350 nM

Question: How did the Ki turn out when `O=C(NCC1CC1)[C@@H]1CC=C[C@@H]2CCN(C3CCCCC3)C(=O)[C@@H]21` (racemic) [compound 12085] was run?
Answer: 475 nM

Question: For `O=C(NC12CC3CC(CC(C3)C1)C2)[C@@H]1CC=C[C@@H]2CCN(CC3CC3)C(=O)[C@@H]21` (racemic) [compound 11940], which Ki is on record?
Answer: 701 nM

Question: For `O=C(NCC1CC1)[C@@H]1CC=C[C@@H]2CCN(Cc3ccccc3)C(=O)[C@@H]21` (racemic) [compound 12100], which Ki is on record?
Answer: 539 nM

Question: With `O=C(NCc1ccccc1)[C@@H]1CC=C[C@@H]2CCN(Cc3ccccc3)C(=O)[C@@H]21` (racemic) [compound 11930] as the molecule, how does the Ki read?
Answer: 739 nM

Question: How did the Ki turn out when `CC(c1ccccc1)N1CCC2C=CCC(C(=O)Nc3nccs3)C2C1=O` (mixture of isomers) [compound 12168] was run?
Answer: 1450 nM

Question: With `O=C(Nc1cccnc1)[C@@H]1CC=C[C@@H]2CCN(Cc3ccccc3)C(=O)[C@@H]21` (racemic) [compound 11933] as the molecule, how does the Ki read?
Answer: 3530 nM

Question: For `O=C(NC1CCCCC1)[C@@H]1CC=C[C@@H]2CN(C3CCCCC3)C(=O)[C@@H]21` (racemic) [compound 14436], which Ki is on record?
Answer: 2150 nM

These molecules were tested against KOR (Homo sapiens, UniProt P41145) (assay: Opioid secondary binding, KOR (Tables 4, 5, 8, 9)). Conditions: not given.
KOR, sequence (P41145 whole entry): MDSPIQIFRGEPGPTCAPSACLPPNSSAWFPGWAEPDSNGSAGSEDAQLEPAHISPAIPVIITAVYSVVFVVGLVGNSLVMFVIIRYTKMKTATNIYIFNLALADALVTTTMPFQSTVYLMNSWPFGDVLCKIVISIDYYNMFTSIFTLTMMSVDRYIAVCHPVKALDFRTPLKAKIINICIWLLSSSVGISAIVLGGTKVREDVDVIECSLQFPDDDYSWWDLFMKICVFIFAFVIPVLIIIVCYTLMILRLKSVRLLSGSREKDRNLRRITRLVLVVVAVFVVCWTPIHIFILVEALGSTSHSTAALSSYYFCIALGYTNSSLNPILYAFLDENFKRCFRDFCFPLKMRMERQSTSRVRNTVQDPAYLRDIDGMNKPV

Question: How did the Ki turn out when `O=C(NC1CCCCC1)[C@@H]1CC=C[C@@H]2CCN(Cc3ccccc3)C(=O)[C@@H]21` [compound 11791] was run?
Answer: 1300 nM

Same assay, conditions: Opioid secondary binding activity for Formula 10 analogs; read-out: KOR, Ki

Question: `CC(C)N1CCC2C=CCC(C(=O)Nc3cccc(Cl)c3)C2C1=O` (racemic) [compound 10844] was tested. Which Ki did it give?
Answer: 2130 nM

Question: How did the Ki turn out when `O=C(OCc1ccccc1)C1CCCN1C(=O)C1CC=CC2CCN(Cc3ccc(Cl)cc3)C(=O)C21` (mixture of isomers) [compound 11808] was run?
Answer: 2290 nM

Question: How did the Ki turn out when `CCOC(=O)CCC(NC(=O)C1CC=CC2CCN(C3CCCCC3)C(=O)C21)C(=O)OCC` (mixture of isomers) [compound 11821] was run?
Answer: 4710 nM

Question: With `O=C(Nc1cccc(Cl)c1)[C@@H]1CC=C[C@@H]2CCN(c3ccccc3)C(=O)[C@@H]21` (racemic) [compound 10821] as the molecule, how does the Ki read?
Answer: 420 nM

Question: For `COC(=O)C(CCSC)NC(=O)C1CC=CC2CCN(C3CCCCC3)C(=O)C21` (mixture of isomers) [compound 11822], which Ki is on record?
Answer: 4500 nM

Question: With `O=C(O)C(Cc1ccccc1)NC(=O)C1CC=CC2CCN(Cc3ccccc3)C(=O)C21` (mixture of isomers) [compound 11902] as the molecule, how does the Ki read?
Answer: 3380 nM

Question: Which Ki does the source give for `CC(C)N1CCC2C=CCC(C(=O)Nc3ccc(Cl)c(C(F)(F)F)c3)C2C1=O` (racemic) [compound 10849] here?
Answer: 261 nM

Question: `O=C(Nc1ccc(Cl)cc1Cl)[C@@H]1CC=C[C@@H]2CCN(CCc3ccccc3)C(=O)[C@@H]21` (racemic) [compound 10834] was tested. Which Ki did it give?
Answer: 6480 nM

Question: How did the Ki turn out when `O=C(Nc1ccc(C(F)(F)F)cc1Cl)[C@@H]1CC=C[C@@H]2CCN(CCc3ccccc3)C(=O)[C@@H]21` (racemic) [compound 11877] was run?
Answer: 3300 nM

Question: For `O=C(Nc1ccc(F)c(F)c1)[C@@H]1CC=C[C@@H]2CCN(CC3CCCCC3)C(=O)[C@@H]21` (racemic) [compound 11889], which Ki is on record?
Answer: 131 nM

Question: Which Ki does the source give for `O=C(OCc1ccccc1)C(Cc1ccccc1)NC(=O)C1CC=CC2CCN(CCc3ccccc3)C(=O)C21` (mixture of isomers) [compound 11831] here?
Answer: 1520 nM

Question: `O=C(Nc1ccc(C(F)(F)F)cc1)C1CC=CC2CCN(Cc3ccc(Cl)cc3)C(=O)C21` (racemic) [compound 10837] was tested. Which Ki did it give?
Answer: 2530 nM

Question: With `CC(C)N1CCC2C=CCC(C(=O)Nc3ccc(F)c(F)c3)C2C1=O` (racemic) [compound 10847] as the molecule, how does the Ki read?
Answer: 4200 nM

Question: For `Cc1ccc(NC(=O)[C@@H]2CC=C[C@@H]3CCN(C4CCCCC4)C(=O)[C@@H]32)cc1Cl` (racemic) [compound 11919], which Ki is on record?
Answer: 102 nM

Question: `O=C(Nc1ccccc1)[C@@H]1CC=C[C@@H]2CCN(Cc3ccccc3)C(=O)[C@@H]21` [compound 11793] was tested. Which Ki did it give?
Answer: 1610 nM

Question: Which Ki does the source give for `COc1ccc(NC(=O)[C@@H]2CC=C[C@@H]3CCN(Cc4ccc(Cl)cc4)C(=O)[C@@H]32)cc1` (racemic) [compound 10835] here?
Answer: 5070 nM

Question: How did the Ki turn out when `O=C(Nc1ccc(Cl)c(C(F)(F)F)c1)C1CC=CC2CCN(Cc3ccc(Cl)cc3)C(=O)C21` (racemic) [compound 10841] was run?
Answer: 465 nM

Question: Which Ki does the source give for `O=C(Nc1ccc(Cl)c(C(F)(F)F)c1)C1CCCC2CCN(C3CCCCC3)C(=O)C21` (racemic) [compound 11479] here?
Answer: 792 nM

Question: With `O=C(NCc1ccccc1)[C@@H]1CC=C[C@@H]2CCN(C3CCCCC3)C(=O)[C@@H]21` (racemic) [compound 11918] as the molecule, how does the Ki read?
Answer: 358 nM

Question: How did the Ki turn out when `CC(NC(=O)C1CC=CC2CCN(CCc3ccccc3)C(=O)C21)c1ccccc1` (mixture of isomers) [compound 11848] was run?
Answer: 3490 nM

Question: With `COC(=O)C(C)NC(=O)C1CC=CC2CCN(Cc3ccccc3)C(=O)C21` (mixture of isomers) [compound 11818] as the molecule, how does the Ki read?
Answer: 6170 nM

Question: With `O=C(OCc1ccccc1)C(Cc1ccccc1)NC(=O)C1CC=CC2CCN(Cc3ccccc3)C(=O)C21` (mixture of isomers) [compound 11819] as the molecule, how does the Ki read?
Answer: 1290 nM

Question: For `O=C(Nc1ccc(C(F)(F)F)cc1Cl)[C@@H]1CC=C[C@@H]2CCN(c3ccccc3)C(=O)[C@@H]21` (racemic) [compound 11865], which Ki is on record?
Answer: 180 nM

Question: For `O=C(Nc1cccc(Cl)c1)[C@@H]1CC=C[C@@H]2CCN(Cc3ccc(Cl)cc3)C(=O)[C@@H]21` (racemic) [compound 10836], which Ki is on record?
Answer: 225 nM

Question: Which Ki does the source give for `COC(=O)C(CCSC)NC(=O)C1CC=CC2CCN(Cc3ccccc3)C(=O)C21` (mixture of isomers) [compound 11816] here?
Answer: 2630 nM

Question: With `O=C(Nc1ccc(Cl)c(C(F)(F)F)c1)[C@@H]1CC=C[C@@H]2CCN(CC3CCCCC3)C(=O)[C@@H]21` (racemic) [compound 11890] as the molecule, how does the Ki read?
Answer: 840 nM

Question: `O=C(Nc1ccc(F)c(F)c1)C1CC=CC2CCN(Cc3ccc(Cl)cc3)C(=O)C21` (racemic) [compound 10839] was tested. Which Ki did it give?
Answer: 652 nM

Question: For `O=C(Nc1c(F)c(F)c(F)c(F)c1F)[C@@H]1CC=C[C@@H]2CCN(Cc3ccccc3)C(=O)[C@@H]21` (racemic) [compound 14309], which Ki is on record?
Answer: 2970 nM

Question: For `O=C(NC1CCCCC1)[C@@H]1CC=C[C@@H]2CCN(CC3CCCCC3)C(=O)[C@@H]21` (racemic) [compound 11886], which Ki is on record?
Answer: 177 nM

Question: `O=C(Nc1ccc(Cl)cc1Cl)[C@@H]1CC=C[C@@H]2CCN(c3ccccc3)C(=O)[C@@H]21` (racemic) [compound 10826] was tested. Which Ki did it give?
Answer: 287 nM

Question: How did the Ki turn out when `O=C(NCc1ccc(Cl)c(C(F)(F)F)c1)[C@@H]1CC=C[C@@H]2CCN(C3CCCCC3)C(=O)[C@@H]21` (racemic) [compound 11856] was run?
Answer: 531 nM

Question: Which Ki does the source give for `COc1cccc(F)c1CN1CC[C@H]2C=CC[C@@H](C(=O)Nc3ccc(C)c(F)c3F)[C@H]2C1=O` (racemic) [compound 13485] here?
Answer: 5120 nM

Question: `O=C(Nc1ccc(Cl)cc1C(F)(F)F)[C@@H]1CC=C[C@@H]2CCN(C3CCCCC3)C(=O)[C@@H]21` (racemic) [compound 11858] was tested. Which Ki did it give?
Answer: 866 nM

Question: How did the Ki turn out when `O=C(OCc1ccccc1)C(Cc1ccccc1)NC(=O)C1CC=CC2CCN(C3CCCCC3)C(=O)C21` (mixture of isomers) [compound 11825] was run?
Answer: 1110 nM

Question: `CC(C)N1CCC2C=CCC(C(=O)Nc3cccc(C(F)(F)F)c3)C2C1=O` (racemic) [compound 10846] was tested. Which Ki did it give?
Answer: 621 nM

Question: With `O=C(Nc1c(F)cccc1F)[C@@H]1CC=C[C@@H]2CCN(c3ccccc3)C(=O)[C@@H]21` (racemic) [compound 10824] as the molecule, how does the Ki read?
Answer: 5000 nM

Question: `CC(NC(=O)C1CC=CC2CCN(Cc3ccccc3)C(=O)C21)c1ccccc1` (mixture of isomers) [compound 11854] was tested. Which Ki did it give?
Answer: 712 nM

Question: Which Ki does the source give for `O=C1NCC[C@H]2C=CC[C@@H](C(=O)Nc3ccc(Cl)c(C(F)(F)F)c3)[C@@H]12` (racemic) [compound 11896] here?
Answer: 729 nM

Question: How did the Ki turn out when `O=C(Nc1cccc(C(F)(F)F)c1)C1CC=CC2CCN(Cc3ccc(Cl)cc3)C(=O)C21` (racemic) [compound 10838] was run?
Answer: 1510 nM

Question: Which Ki does the source give for `Cc1cc(NC(=O)[C@@H]2CC=C[C@@H]3CCN(C4CCCCC4)C(=O)[C@@H]32)ccc1Cl` (racemic) [compound 11860] here?
Answer: 716 nM

Question: With `O=C(Nc1ccccc1)[C@@H]1CC=C[C@@H]2CCN(CC3CCCCC3)C(=O)[C@@H]21` (racemic) [compound 11887] as the molecule, how does the Ki read?
Answer: 187 nM

Question: With `CC(C)N1CCC2C=CCC(C(=O)Nc3ccc(Cl)cc3Cl)C2C1=O` (racemic) [compound 10850] as the molecule, how does the Ki read?
Answer: 2410 nM

Question: With `CC(NC(=O)C1CC=CC2CCN(C3CCCCC3)C(=O)C21)c1ccccc1` (mixture of isomers) [compound 11836] as the molecule, how does the Ki read?
Answer: 599 nM

Question: `O=C(Nc1ccc([N+](=O)[O-])c(C(F)(F)F)c1)[C@@H]1CC=C[C@@H]2CCN(C3CCCCC3)C(=O)[C@@H]21` (racemic) [compound 11920] was tested. Which Ki did it give?
Answer: 5110 nM

Question: For `O=C(Nc1ccc(F)cc1)[C@@H]1CC=C[C@@H]2CCN(Cc3ccccc3)C(=O)[C@@H]21` (racemic) [compound 11909], which Ki is on record?
Answer: 276 nM

Question: Which Ki does the source give for `O=C(Nc1ccc(F)c(F)c1)[C@@H]1CC=C[C@@H]2CCN(c3ccccc3)C(=O)[C@@H]21` (racemic) [compound 10823] here?
Answer: 375 nM

Question: With `O=C(Nc1ccc(Br)c(C(F)(F)F)c1)[C@@H]1CC=C[C@@H]2CCN(C3CCCCC3)C(=O)[C@@H]21` (racemic) [compound 11857] as the molecule, how does the Ki read?
Answer: 814 nM

Question: For `O=C(Nc1ccc(C(F)(F)F)cc1)[C@@H]1CC=C[C@@H]2CCN(c3ccccc3)C(=O)[C@@H]21` (racemic) [compound 10822], which Ki is on record?
Answer: 786 nM
